{"source": "ChEMBL document CHEMBL1201862", "about": "“PubChem BioAssay data set” (2004)", "key": {"Exodeoxyribonuclease V": {"molecular_target": "T1, Exodeoxyribonuclease V (Escherichia coli (strain K12), UniProt P04993+P07648+P08394)", "T1 sequence (P04993 whole entry)": "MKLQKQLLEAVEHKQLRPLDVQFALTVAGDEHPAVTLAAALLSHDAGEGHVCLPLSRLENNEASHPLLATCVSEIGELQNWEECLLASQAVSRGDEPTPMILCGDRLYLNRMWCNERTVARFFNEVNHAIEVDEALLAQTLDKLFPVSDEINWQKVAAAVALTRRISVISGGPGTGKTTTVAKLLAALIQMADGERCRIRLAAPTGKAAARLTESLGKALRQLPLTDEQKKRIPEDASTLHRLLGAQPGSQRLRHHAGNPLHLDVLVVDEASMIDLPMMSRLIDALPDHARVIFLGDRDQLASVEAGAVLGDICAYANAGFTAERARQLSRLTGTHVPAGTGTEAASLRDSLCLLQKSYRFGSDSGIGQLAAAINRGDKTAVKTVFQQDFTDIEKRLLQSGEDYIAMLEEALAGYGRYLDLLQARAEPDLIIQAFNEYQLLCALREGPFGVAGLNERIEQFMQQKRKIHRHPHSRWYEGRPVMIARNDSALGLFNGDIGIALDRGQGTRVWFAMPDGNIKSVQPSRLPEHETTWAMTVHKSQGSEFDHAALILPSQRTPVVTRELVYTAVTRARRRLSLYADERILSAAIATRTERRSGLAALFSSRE", "T1 sequence (P07648 whole entry)": "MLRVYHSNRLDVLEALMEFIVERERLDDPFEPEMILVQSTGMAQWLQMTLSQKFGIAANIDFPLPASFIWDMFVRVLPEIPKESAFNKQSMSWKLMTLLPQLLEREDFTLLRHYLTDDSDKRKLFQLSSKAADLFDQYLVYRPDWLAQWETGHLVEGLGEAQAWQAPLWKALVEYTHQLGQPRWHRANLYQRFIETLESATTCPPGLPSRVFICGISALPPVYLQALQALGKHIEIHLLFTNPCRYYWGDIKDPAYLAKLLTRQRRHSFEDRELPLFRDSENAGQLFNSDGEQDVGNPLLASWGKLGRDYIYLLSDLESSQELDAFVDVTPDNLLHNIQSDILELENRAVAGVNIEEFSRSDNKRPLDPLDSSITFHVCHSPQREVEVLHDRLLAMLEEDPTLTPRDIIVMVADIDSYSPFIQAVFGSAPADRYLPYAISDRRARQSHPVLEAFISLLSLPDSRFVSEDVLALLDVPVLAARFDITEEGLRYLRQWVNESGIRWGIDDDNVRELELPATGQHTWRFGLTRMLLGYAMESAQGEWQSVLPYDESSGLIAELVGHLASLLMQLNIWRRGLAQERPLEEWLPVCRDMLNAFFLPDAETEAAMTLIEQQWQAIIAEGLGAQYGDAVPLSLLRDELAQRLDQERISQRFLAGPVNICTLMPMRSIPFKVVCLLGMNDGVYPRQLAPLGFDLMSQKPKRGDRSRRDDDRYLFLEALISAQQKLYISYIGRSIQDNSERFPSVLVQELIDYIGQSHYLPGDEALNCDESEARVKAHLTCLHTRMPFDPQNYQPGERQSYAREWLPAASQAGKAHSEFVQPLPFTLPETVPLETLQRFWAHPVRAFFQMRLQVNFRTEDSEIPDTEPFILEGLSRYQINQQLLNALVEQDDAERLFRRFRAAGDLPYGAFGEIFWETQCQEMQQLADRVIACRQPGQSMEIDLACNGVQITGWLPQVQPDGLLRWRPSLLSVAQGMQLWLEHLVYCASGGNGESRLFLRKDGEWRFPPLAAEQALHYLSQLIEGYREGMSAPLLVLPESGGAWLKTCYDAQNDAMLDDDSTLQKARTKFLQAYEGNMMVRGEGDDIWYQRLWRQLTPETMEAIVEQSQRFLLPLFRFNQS", "T1 sequence (P08394 whole entry)": "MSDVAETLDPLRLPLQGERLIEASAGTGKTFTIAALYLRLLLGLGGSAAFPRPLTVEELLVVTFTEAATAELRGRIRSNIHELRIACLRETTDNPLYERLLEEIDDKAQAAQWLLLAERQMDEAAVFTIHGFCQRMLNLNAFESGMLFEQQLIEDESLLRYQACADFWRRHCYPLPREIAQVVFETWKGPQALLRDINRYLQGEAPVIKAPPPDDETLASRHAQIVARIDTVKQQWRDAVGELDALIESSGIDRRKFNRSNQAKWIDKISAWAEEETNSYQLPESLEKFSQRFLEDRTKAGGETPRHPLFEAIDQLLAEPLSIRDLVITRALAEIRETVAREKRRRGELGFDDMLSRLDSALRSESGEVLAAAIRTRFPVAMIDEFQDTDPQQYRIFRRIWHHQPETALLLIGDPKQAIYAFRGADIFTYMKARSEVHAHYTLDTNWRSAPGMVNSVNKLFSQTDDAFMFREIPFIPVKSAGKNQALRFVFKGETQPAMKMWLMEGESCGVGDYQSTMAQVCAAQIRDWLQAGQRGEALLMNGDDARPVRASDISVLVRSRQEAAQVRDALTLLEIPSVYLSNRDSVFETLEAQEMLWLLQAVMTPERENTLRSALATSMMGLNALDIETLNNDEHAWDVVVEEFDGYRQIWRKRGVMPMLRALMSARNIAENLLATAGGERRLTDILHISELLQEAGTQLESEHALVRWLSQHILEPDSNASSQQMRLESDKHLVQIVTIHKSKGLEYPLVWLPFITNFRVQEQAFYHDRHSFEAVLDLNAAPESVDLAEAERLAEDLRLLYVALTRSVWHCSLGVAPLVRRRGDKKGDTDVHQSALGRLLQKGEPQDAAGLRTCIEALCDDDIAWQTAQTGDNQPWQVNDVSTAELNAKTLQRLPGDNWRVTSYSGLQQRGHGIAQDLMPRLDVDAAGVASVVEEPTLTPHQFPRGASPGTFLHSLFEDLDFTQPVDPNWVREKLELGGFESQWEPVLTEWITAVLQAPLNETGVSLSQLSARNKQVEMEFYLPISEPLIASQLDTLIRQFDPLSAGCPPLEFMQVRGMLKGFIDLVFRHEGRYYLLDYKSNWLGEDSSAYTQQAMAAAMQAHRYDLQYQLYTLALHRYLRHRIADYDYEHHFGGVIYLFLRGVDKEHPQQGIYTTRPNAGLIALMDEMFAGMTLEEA", "test": "RecBCD inhibition via phage-restricted bacterial growth – absorbance, V66 E. coli, mutant T4 phage, counter-screen for AddAB inhibitor project, dose response (AID 492957)", "assay_type": "functional, cell-based, Escherichia coli str. K-12 substr. MG1655"}, "[1]": {"test": "Counterscreen for AddAB inhibitors: absorbance-based bacterial cell-based high throughput dose response assay for inhibitors of bacterial viability. [Related pubchem assays (depositor defined):AID435030, AID449728, AID449731, AID488942, AID488955, AID488956]", "assay_type": "functional"}, "SUMO E1/E2": {"molecular_target": "SUMO E1/E2 (Homo sapiens, UniProt P63279+Q9UBE0+Q9UBT2)", "sequence (Q9UBE0 whole entry)": "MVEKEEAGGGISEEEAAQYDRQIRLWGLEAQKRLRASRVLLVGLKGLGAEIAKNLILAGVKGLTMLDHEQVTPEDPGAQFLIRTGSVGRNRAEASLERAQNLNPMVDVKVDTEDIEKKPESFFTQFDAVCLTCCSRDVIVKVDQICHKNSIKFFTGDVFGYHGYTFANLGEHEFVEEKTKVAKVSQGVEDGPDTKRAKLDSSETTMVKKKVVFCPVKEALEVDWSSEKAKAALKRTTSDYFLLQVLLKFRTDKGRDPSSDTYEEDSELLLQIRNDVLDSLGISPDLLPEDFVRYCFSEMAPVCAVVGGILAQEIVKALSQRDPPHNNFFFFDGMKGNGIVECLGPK", "sequence (Q9UBT2 whole entry)": "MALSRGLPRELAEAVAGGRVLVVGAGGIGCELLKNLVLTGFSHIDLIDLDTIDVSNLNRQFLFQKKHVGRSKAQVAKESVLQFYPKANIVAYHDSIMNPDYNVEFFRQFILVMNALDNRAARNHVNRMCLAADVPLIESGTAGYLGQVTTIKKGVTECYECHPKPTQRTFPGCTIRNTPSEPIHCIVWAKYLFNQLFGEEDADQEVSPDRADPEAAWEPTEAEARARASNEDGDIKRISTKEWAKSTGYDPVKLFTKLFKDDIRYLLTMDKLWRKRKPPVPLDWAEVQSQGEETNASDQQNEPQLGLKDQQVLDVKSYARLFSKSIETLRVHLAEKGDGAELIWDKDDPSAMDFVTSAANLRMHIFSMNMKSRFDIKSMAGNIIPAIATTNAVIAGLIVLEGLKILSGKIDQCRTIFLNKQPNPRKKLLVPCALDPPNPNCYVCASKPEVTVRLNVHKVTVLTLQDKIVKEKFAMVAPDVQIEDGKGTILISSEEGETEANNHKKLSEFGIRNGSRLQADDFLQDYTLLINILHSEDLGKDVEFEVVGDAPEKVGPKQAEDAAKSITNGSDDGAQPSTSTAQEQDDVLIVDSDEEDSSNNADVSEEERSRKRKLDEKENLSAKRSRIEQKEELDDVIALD", "sequence (P63279 whole entry)": "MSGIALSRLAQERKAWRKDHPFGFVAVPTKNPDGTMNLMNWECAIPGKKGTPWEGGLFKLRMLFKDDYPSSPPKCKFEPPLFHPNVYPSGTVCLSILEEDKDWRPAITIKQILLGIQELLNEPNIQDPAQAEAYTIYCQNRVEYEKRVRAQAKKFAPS", "test": "SAR analysis of SUMOylation using HTRF in an in-Vitro dose response assay. [Related pubchem assays (depositor defined):AID2006, AID2011, AID2018, AID2069, AID2658]", "assay_type": "functional"}, "SUMO-activating enzyme": {"molecular_target": "SUMO-activating enzyme (Homo sapiens, UniProt Q9UBT2)", "sequence (Q9UBE0 whole entry)": "as the sequence (Q9UBE0 whole entry) above", "sequence (Q9UBT2 whole entry)": "as the sequence (Q9UBT2 whole entry) above", "test": "blockers of UBC9-mediated SUMO conjugation – biochemical, AlphaScreen, SUMOylation inhibitor project, confirmation (AID 2018)", "assay_type": "functional"}, "[2]": {"molecular_target": "T2, Orexin/Hypocretin receptor type 1 (Homo sapiens, UniProt O43613)", "T2 sequence (O43613 whole entry)": "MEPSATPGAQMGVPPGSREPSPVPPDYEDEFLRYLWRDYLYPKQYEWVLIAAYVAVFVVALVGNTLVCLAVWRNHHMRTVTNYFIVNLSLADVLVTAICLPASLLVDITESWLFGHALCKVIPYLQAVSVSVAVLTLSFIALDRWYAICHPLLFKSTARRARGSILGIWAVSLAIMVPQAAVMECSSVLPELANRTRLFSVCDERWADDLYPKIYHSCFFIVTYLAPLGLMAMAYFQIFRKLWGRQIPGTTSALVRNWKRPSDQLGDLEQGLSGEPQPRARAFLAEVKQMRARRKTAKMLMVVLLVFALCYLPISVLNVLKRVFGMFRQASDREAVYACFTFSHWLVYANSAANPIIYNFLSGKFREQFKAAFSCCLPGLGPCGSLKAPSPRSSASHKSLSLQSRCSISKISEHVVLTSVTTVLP", "test": "(§1) Fluorescence-based cell-based high throughput dose response assay for antagonists of the orexin 1 receptor (OX1R; HCRTR1). [Related pubchem assays (depositor defined):AID434989, AID435008, AID463079, AID485270, AID492963, AID492964, AID492965, AID493232, AID504717, AID504718]", "assay_type": "functional"}, "[3]": {"test": "THP-1 cell cytotoxicity, dose response, cytotoxicity control for non-replicating M. tuberculosis project (AID 489025)", "assay_type": "functional"}, "[4]": {"test": "(§2) Counterscreen for antagonists of the orexin 1 receptor (OX1R; HCRTR1): Fluorescence-based cell-based high throughput dose response assay to identify antagonists of the parental CHO cell line. [Related pubchem assays (depositor defined):AID434989, AID435008, AID463079, AID485270, AID492963, AID492964, AID492965, AID493232, AID504699, AID504701]", "assay_type": "functional"}, "[5]": {"molecular_target": "G-protein coupled receptor 55 (Homo sapiens, UniProt Q9Y2T6)", "sequence (Q9Y2T6 whole entry)": "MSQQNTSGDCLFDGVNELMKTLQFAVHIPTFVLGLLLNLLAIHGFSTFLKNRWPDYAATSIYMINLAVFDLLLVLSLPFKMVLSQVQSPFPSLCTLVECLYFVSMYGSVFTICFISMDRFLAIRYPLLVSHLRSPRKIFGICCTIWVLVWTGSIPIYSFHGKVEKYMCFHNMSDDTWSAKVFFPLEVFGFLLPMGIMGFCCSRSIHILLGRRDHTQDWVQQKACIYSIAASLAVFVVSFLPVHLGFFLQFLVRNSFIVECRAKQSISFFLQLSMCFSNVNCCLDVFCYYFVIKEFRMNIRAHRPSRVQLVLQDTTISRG", "test": "inhibition of LPI-stimulated GPR55 beta-arrestin translocation – imaging, U2OS, beta-arrestin-GFP, LPI agonist, primary screen (AID 2013)", "assay_type": "functional"}, "CHO-K1": {"test_system": "CHO-K1", "test": "as §2, with “Homogeneous time resolved fluorescence (HTRF)-based” for “Fluorescence-based”, “cell-based” for “cell-based high throughput”, “CHO-K1” for “CHO”", "assay_type": "functional", "conditions": "Cricetulus griseus"}, "[6]": {"molecular_target": "T2, Orexin/Hypocretin receptor type 1", "test": "as §1, with “Homogeneous Time Resolved Fluorescence (HTRF)-based” for “Fluorescence-based”", "assay_type": "functional"}, "[7]": {"test": "HepG2 cell cytotoxicity, dose response, cytotoxicity control for non-replicating M. tuberculosis project (AID 489018)", "assay_type": "functional", "conditions": "Mycobacterium tuberculosis"}, "[8]": {"molecular_target": "T3, RNA-editing ligase 1, mitochondrial (Trypanosoma brucei brucei, UniProt P86926)", "T3 sequence (P86926 whole entry)": "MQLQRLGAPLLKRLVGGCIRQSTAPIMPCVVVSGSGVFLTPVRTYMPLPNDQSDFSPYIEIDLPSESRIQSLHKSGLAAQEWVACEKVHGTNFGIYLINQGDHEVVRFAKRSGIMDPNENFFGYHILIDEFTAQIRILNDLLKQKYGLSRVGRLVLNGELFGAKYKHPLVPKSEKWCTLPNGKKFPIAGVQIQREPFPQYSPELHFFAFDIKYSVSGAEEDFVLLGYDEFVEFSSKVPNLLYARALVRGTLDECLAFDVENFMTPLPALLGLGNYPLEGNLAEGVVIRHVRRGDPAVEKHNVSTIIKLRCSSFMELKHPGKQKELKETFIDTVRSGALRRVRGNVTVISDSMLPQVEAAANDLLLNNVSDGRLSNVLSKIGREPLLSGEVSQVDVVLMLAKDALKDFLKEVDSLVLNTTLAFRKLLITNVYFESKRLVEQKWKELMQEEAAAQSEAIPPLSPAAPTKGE", "test": "inhibition of trypanosome RNA editing ligase – biochemical, fluorescence, Trypanosoma brucei, dose response (AID 1117295)", "assay_type": "functional"}, "cells": {"test": "cells", "assay_type": "functional"}, "[9]": {"test": "alpha-synuclein stem-loop luciferase translation blockers – H4 neuroglioma cells, luminescence, confirmation (AID 1988)", "assay_type": "functional, cell-based"}, "[10]": {"test": "Luminescence Cell-Based Dose Response HTS to Identify Inhibitors of 5'UTR Stem-Loop Driven Prion Protein mRNA Translation in H4 Neuroglioblastoma Cells. [Related pubchem assays: 1827 (Project Summary), 1813 (Primary HTS)]", "assay_type": "functional"}, "[11]": {"test": "luciferase reporter signal suppression in cells – H4 neuroglioma cells, luminescence, dose response (AID 1990)", "assay_type": "functional, cell-based"}}, "note": "The source made the active and inactive calls.", "data": [{"smiles": "CC(=O)N(O)CCCCCNC(=O)CCC(=O)N(O)CCCCCNC(=O)CCC(=O)N(O)CCCCCNC(=O)CCC(=O)O", "values": [{"measurement": "IC50", "setting": "Exodeoxyribonuclease V", "result": "> 118 µM (inactive)"}, {"measurement": "IC50", "setting": "[1]", "result": "> 118 µM (inactive)"}]}, {"smiles": "Cc1ccc(C2Nc3ccc(C(=O)O)cc3C3C=CCC32)cc1", "note": "(stereo not drawn)", "values": [{"measurement": "IC50", "setting": "SUMO E1/E2", "result": "> 100 µM (inactive)"}]}, {"smiles": "Cc1ccc(-c2nc3ccccc3o2)cc1NC(=O)c1ccc2c(c1)OCO2", "values": [{"measurement": "IC50", "setting": "SUMO-activating enzyme", "result": "34.1 µM (active)"}]}, {"smiles": "COC(=O)C1=C(C)N(Cc2ccccc2)C(NCc2ccccc2)=N[C@H]1c1cccc(F)c1", "values": [{"measurement": "IC50", "setting": "[2]", "result": "17.9 µM (inactive)"}, {"measurement": "CC50", "setting": "[3]", "result": "15 µM (active)"}, {"measurement": "IC50", "setting": "[4]", "result": "23.8 µM (inactive)"}, {"measurement": "IC50", "setting": "[5]", "result": "1.25 µM (active)"}, {"measurement": "IC50", "setting": "CHO-K1", "result": "> 66.2 µM (inactive)"}, {"measurement": "IC50", "setting": "[6]", "result": "> 66.2 µM (inactive)"}, {"measurement": "CC50", "setting": "[7]", "result": "14.9 µM (active)"}, {"measurement": "IC50", "setting": "[8]", "result": "> 96.6 µM (inactive)"}, {"measurement": "IC50", "setting": "cells", "result": "19.8 µM (active)"}]}, {"smiles": "Nc1c2cnnc-2nc(SCC(=O)c2ccc(Br)cc2)n1-c1ccc(Br)cc1", "values": [{"measurement": "IC50", "setting": "SUMO-activating enzyme", "result": "59.1 µM (active)"}, {"measurement": "EC50", "setting": "[9]", "result": "> 120 µM (not active)"}, {"measurement": "EC50", "setting": "[10]", "result": "> 120 µM (not active)"}, {"measurement": "EC50", "setting": "[11]", "result": "> 120 µM (not active)"}]}, {"smiles": "Cc1ccc(Nc2cc3ccccc3c(=O)[nH]2)cc1", "values": [{"measurement": "IC50", "setting": "SUMO E1/E2", "result": "19.8 µM (active)"}]}]}
